Reference: ChEMBL document CHEMBL4311992, “Discovery of 3-(((9H-purin-6-yl)amino)methyl)-4,6-dimethylpyridin-2(1H)-one derivatives as novel tubulin polymerization inhibitors for treatment of cancer” (Eur J Med Chem, 2019)
Calls of active or inactive are those of the source. The calls are words filed in the database; no cut-off is given here.

Experiments:
[1] = target: Calcium/calmodulin-dependent protein kinase type 1 (Homo sapiens) (UniProt Q14012); experiment: Inhibition of recombinant human CaMK1 (2 to end residues) assessed as residual activity at 10 uM using […] as substrate measured after 40 mins in presence of [gamma33P]ATP by scintillation counting method
Chain of Calcium/calmodulin-dependent protein kinase type 1 (Homo sapiens) (Q14012 whole entry, looked up, the tested form may be a part): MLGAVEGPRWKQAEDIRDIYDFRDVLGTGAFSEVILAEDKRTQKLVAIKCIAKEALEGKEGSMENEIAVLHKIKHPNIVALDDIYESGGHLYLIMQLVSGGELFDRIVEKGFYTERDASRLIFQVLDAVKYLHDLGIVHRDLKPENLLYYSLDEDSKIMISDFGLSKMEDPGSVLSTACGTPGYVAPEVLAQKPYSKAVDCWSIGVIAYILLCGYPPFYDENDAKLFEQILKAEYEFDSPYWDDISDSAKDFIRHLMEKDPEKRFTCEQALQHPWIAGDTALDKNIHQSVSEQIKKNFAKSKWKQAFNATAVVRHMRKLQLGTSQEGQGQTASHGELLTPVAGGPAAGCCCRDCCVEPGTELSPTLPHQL

[2] = target: TRAF2 and NCK-interacting protein kinase (Homo sapiens) (UniProt Q9UKE5); experiment: Inhibition of human TNIK (1 to 367 residues) using RLGRDKYKTLRQIRQ as substrate measured after 40 mins in presence of [gamma33P]ATP by scintillation counting method; parameters: scale not given: the % may be the effect or the level left
Chain of TRAF2 and NCK-interacting protein kinase (Homo sapiens) (Q9UKE5 whole entry, looked up, the tested form may be a part): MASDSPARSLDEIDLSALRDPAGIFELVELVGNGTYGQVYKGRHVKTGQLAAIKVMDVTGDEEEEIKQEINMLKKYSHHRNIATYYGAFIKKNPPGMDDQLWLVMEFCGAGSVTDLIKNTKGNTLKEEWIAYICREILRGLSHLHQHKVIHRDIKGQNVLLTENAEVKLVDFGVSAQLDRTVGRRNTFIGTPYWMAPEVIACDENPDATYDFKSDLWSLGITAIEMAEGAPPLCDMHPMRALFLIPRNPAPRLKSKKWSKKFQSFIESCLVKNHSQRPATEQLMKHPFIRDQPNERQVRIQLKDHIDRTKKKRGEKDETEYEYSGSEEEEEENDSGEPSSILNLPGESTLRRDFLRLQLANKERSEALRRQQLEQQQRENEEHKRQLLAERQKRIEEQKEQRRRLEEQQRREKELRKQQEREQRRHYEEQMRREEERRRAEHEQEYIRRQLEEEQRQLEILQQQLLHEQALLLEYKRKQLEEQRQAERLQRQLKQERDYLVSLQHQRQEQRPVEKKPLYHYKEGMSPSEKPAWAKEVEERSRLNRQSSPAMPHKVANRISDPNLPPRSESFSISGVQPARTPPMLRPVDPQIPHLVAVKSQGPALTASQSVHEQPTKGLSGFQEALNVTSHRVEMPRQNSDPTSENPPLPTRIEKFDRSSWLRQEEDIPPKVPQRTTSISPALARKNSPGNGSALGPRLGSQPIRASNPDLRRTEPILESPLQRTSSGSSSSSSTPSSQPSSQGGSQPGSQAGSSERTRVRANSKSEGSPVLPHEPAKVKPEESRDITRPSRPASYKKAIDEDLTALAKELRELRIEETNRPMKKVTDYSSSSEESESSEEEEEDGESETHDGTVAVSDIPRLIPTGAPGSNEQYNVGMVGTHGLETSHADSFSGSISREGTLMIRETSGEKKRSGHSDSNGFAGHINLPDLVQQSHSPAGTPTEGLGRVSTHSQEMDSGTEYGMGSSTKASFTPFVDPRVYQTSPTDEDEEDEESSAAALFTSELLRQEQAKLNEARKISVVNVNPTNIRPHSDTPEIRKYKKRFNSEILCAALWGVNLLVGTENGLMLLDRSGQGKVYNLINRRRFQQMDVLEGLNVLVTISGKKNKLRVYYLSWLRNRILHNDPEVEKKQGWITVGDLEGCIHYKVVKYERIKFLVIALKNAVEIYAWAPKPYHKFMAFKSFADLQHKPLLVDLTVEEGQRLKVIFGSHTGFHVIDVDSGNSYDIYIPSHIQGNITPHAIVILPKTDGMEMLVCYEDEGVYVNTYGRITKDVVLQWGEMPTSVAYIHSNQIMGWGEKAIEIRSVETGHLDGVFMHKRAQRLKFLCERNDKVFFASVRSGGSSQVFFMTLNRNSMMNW

HCT-116 [3] = experiment: Inhibition of colony formation in human HCT116 cells at 50 nM after 14 days by crystal violet staining-based microscopic analysis; assay type: functional; conditions: HCT-116, 336 h
[4] = target: Serine/threonine-protein kinase Nek7 (Homo sapiens) (UniProt Q8TDX7); experiment: Inhibition of recombinant human NEK7 (2 to end residues) assessed as residual activity at 10 uM using FLAKSFGSPNRAYKK as substrate measured after 40 mins in presence of [gamma33P]ATP by scintillation counting method
Chain of Serine/threonine-protein kinase Nek7 (Homo sapiens) (Q8TDX7 whole entry, looked up): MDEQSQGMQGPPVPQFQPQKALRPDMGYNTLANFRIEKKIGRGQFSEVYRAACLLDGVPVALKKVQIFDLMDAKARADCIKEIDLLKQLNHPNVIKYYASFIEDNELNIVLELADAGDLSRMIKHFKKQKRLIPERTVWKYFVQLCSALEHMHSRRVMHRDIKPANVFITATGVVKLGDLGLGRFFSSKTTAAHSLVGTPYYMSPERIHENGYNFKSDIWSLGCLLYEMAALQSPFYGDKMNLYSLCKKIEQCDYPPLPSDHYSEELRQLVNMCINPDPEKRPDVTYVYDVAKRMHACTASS

[5] = target: Tyrosine-protein kinase FRK (Homo sapiens) (UniProt P42685); experiment: Inhibition of human PTK5 (218 to end residues) using GGEEEEYFELVKKKK as substrate measured after 40 mins in presence of [gamma33P]ATP by scintillation counting method; parameters: scale not given: the % may be the effect or the level left
Chain of Tyrosine-protein kinase FRK (Homo sapiens) (P42685 whole entry): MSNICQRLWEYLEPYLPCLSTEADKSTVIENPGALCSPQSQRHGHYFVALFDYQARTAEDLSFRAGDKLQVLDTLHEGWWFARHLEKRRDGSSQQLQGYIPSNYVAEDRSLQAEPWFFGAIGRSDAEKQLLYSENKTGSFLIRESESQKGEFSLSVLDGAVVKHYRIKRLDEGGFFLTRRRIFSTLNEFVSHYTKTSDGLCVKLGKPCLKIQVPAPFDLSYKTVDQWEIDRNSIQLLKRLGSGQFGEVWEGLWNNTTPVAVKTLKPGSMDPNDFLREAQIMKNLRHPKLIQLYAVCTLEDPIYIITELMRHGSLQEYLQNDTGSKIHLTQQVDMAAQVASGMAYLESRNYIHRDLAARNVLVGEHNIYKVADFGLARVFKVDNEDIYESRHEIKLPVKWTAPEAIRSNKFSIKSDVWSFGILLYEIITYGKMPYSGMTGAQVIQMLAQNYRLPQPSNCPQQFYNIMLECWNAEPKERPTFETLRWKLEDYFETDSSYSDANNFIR

[6] = target: Cyclin-dependent kinase 14/Cyclin-Y (Homo sapiens) (UniProt O94921+Q8ND76); experiment: Inhibition of human CDK14/cyclinY assessed as residual activity at 10 uM by radiometric method; assay type: protein-complex assay
HCT-116 [7] = experiment: Induction of apoptosis in human HCT116 cells assessed as late apoptotic cells at 25 nM measured after 48 hrs by Annexin V-FITC/propidium iodide staining-based flow cytometry (reference value: 3.87%); assay type: functional
[8] = target: Serine/threonine-protein kinase 4 (Homo sapiens) (UniProt Q13043); experiment: Inhibition of recombinant full-length human MST1 assessed as residual activity at 10 uM using KKSRGDYMTMQIG as substrate measured after 40 mins in presence of [gamma33P]ATP by scintillation counting method
[9] = system: Proto-oncogene tyrosine-protein kinase Src (Homo sapiens), P12931 [T341M]; experiment: Inhibition of recombinant full-length human Src T341M mutant assessed as residual activity at 10 uM using GGEEEEYFELVKKKK as substrate measured after 40 mins in presence of [gamma33P]ATP by scintillation counting method
[10] = target: G protein-coupled receptor kinase 3 (Homo sapiens) (UniProt P35626); experiment: Inhibition of recombinant full-length human GRK5 assessed as residual activity at 10 uM using casein as substrate measured after 40 mins in presence of [gamma33P]ATP by scintillation counting method
[11] = target: Mitogen-activated protein kinase 1 (Mus musculus) (UniProt P63085); experiment: Inhibition of mouse MAPK2 assessed as residual activity at 10 uM
Chain of Mitogen-activated protein kinase 1 (Mus musculus) (P63085 whole entry, the tested form may be a part): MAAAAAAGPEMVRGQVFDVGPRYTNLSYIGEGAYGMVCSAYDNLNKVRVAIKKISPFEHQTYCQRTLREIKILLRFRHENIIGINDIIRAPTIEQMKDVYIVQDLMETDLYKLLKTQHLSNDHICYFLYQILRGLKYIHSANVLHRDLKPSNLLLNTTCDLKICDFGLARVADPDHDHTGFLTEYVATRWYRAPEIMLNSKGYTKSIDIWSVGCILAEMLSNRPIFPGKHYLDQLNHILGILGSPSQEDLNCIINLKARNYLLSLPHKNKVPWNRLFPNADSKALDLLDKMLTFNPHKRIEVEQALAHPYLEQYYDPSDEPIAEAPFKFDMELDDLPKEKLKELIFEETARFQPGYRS

[12] = target: Ephrin type-A receptor 2 (Homo sapiens) (UniProt P29317); experiment: Inhibition of recombinant human EphA2 (596 to 900 residues) assessed as residual activity at 10 uM using poly(Glu, Tyr) 4:1 as substrate measured after 40 mins in presence of [gamma33P]ATP by scintillation counting method
[13] = target: Death-associated protein kinase 3 (Homo sapiens) (UniProt O43293); experiment: Inhibition of human ZIPK (1 to 290 residues) using KKLNRTLSFAEPG as substrate measured after 40 mins in presence of [gamma33P]ATP by scintillation counting method; parameters: scale not given: the % may be the effect or the level left
[14] = system: Serine/threonine-protein kinase Nek4 (Homo sapiens), P51957 [P225A]; experiment: Inhibition of recombinant full-length human NEK4 P225A mutant assessed as residual activity at 10 uM using myelin basic protein as substrate measured after 40 mins in presence of [gamma33P]ATP by scintillation counting method
[15] = target: Mitogen-activated protein kinase kinase kinase kinase 1 (Homo sapiens) (UniProt Q92918); experiment: Inhibition of recombinant human HPK1 (1 to 346 residues) assessed as residual activity at 10 uM using myelin basic protein as substrate measured after 40 mins in presence of [gamma33P]ATP by scintillation counting method
[16] = target: Insulin-like growth factor 1 receptor (Homo sapiens) (UniProt P08069); experiment: Inhibition of recombinant human IGF1R (959 to end residues) assessed as residual activity at 10 uM using KKKSPGEYVNIEFG as substrate measured after 40 mins in presence of [gamma33P]ATP by scintillation counting method
Chain of Insulin-like growth factor 1 receptor (Homo sapiens) (P08069 31-736 limits assumed): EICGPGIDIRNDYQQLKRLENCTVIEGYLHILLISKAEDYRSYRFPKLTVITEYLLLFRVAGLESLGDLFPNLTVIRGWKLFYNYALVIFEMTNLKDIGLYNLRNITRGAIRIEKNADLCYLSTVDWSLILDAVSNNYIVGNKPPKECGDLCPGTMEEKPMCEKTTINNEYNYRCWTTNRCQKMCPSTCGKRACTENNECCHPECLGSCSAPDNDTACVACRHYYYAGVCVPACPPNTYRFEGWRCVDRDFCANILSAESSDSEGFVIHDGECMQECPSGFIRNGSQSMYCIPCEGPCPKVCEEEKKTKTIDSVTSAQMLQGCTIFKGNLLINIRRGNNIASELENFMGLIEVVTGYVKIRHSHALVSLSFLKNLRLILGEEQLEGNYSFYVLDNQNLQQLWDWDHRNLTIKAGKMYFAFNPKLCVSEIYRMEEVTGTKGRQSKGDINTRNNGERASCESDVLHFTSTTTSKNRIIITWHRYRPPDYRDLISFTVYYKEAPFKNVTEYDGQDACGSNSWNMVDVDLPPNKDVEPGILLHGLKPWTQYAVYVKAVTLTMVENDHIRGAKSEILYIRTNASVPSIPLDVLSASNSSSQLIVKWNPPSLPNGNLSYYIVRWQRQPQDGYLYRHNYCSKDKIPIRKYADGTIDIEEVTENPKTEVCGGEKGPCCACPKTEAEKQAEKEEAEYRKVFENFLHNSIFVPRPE
Chain of Insulin-like growth factor 1 receptor (Homo sapiens) (P08069 741-1367 limits assumed): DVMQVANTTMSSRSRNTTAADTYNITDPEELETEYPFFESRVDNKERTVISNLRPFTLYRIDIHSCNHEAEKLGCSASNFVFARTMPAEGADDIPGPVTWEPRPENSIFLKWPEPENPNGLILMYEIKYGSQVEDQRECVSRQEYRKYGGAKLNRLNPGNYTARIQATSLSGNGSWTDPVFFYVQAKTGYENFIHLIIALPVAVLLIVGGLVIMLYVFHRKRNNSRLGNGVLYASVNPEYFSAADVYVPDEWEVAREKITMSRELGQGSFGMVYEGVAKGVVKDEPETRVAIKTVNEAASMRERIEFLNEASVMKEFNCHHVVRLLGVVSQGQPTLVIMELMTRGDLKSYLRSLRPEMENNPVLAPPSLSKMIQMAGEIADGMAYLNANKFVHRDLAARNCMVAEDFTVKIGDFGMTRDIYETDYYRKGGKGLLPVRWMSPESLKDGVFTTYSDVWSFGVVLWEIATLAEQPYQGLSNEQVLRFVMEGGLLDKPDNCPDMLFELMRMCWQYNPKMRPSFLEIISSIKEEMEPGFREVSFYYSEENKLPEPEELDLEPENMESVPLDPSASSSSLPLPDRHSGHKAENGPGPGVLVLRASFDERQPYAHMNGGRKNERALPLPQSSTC

Homo sapiens [17] = species: Homo sapiens; experiment: Inhibition of human activated Tec F514V mutant (174 to end residues) using EFPIYDFLPAKKK as substrate measured after 40 mins in presence of [gamma33P]ATP by scintillation counting method; parameters: scale not given: the % may be the effect or the level left
[18] = system: Epidermal growth factor receptor (Homo sapiens), P00533 [L858R,T790M]; experiment: Inhibition of recombinant human EGFR T790M/L858R mutant (696 to end residues) assessed as residual activity at 10 uM using GGMEDIYFEFMGGKKK as substrate measured after 40 mins in presence of [gamma33P]ATP by scintillation counting method
SW-620 = experiment: Induction of apoptosis in human SW620 cells assessed as increase in cleaved PARP expression up to 200 nM measured after 48 hrs by Western blot analysis; assay type: functional, cell-based
[19] = target: Phosphatidylinositol 4-phosphate 5-kinase type-1 gamma (Homo sapiens) (UniProt O60331); experiment: Inhibition of recombinant full-length human PIP5K1gamma assessed as residual activity at 10 uM using phosphatidylinositol 4-phosphate as substrate measured after 40 mins by HTRF assay
Homo sapiens [20] = species: Homo sapiens; experiment: Inhibition of recombinant full-length human AURKA I31F mutant assessed as residual activity at 10 uM using LRRASLG as substrate measured after 40 mins in presence of [gamma33P]ATP by scintillation counting method
[21] = target: Mitogen-activated protein kinase 10 (Homo sapiens) (UniProt P53779); experiment: Inhibition of recombinant full-length human JNK3 assessed as residual activity at 10 uM using peptide substrate measured after 40 mins in presence of [gamma33P]ATP by scintillation counting method
Chain of Mitogen-activated protein kinase 10 (Homo sapiens) (P53779 whole entry): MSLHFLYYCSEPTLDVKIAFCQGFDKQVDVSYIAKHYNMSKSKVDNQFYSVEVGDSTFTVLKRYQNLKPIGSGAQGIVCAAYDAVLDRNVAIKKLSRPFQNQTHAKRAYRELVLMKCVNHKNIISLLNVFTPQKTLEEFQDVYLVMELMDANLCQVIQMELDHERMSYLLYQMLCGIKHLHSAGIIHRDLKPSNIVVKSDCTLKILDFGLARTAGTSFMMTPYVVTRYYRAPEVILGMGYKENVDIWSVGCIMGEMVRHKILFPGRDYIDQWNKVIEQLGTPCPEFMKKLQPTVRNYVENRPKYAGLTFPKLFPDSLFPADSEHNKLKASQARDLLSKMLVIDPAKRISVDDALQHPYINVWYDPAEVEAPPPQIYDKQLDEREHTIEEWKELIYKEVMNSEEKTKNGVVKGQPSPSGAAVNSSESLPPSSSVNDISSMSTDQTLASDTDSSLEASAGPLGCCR

[22] = system: RAC-beta serine/threonine-protein kinase (Homo sapiens), P31751 [S474D]; experiment: Inhibition of recombinant full-length human PKBbeta S474D mutant (120 to end residues) assessed as residual activity at 10 uM using GRPRTSSFAEGKK as substrate measured after 40 mins in presence of [gamma33P]ATP by scintillation counting method
[23] = system: Fibroblast growth factor receptor 2 (Homo sapiens), P21802 [N549H]; experiment: Inhibition of recombinant human FGFR2 N549H mutant (456 to 770 residues) assessed as residual activity at 10 uM using GGEEEEYFELVKKKK as substrate measured after 40 mins in presence of [gamma33P]ATP by scintillation counting method
[24] = target: Calcium/calmodulin-dependent protein kinase type II subunit alpha (Homo sapiens) (UniProt Q9UQM7); experiment: Inhibition of recombinant full-length human CaMK2alpha assessed as residual activity at 10 uM using calmodulin as substrate measured after 40 mins in presence of [gamma33P]ATP by scintillation counting method

Q: Cc1cc(C)c(CNc2nc(Cl)nc3c2ncn3C2CCCC2)c(=O)[nH]1 was tested. Which Activity [1] did it give?
A: The Activity was 109%.

Q: And the Activity [2]?
A: Its Activity is 108%.

Q: What about the inhibition at 0.05 µM (HCT-116 [3]) of the same molecule?
A: The inhibition at 0.05 µM was 100%.

Q: What about the Activity [4] of the same molecule?
A: The Activity was 106%.

Q: What about the Activity [5] of the same molecule?
A: The Activity was 102%.

Q: And the Activity [6]?
A: The Activity was 96.5%.

Q: And the Activity (HCT-116 [7])?
A: The Activity was 17.1%.

Q: What about the Activity [8] of the same molecule?
A: The Activity was 122%.

Q: What about the Activity [9] of the same molecule?
A: The Activity was 122%.

Q: And the Activity [10]?
A: Its Activity is 105%.

Q: What about the Activity [11] of the same molecule?
A: The Activity was 97.5%.

Q: What about the Activity [12] of the same molecule?
A: Its Activity is 91%.

Q: And the Activity [13]?
A: The Activity was 110%.

Q: And the Activity [14]?
A: The Activity was 104%.

Q: And the Activity [15]?
A: The Activity was 106%.

Q: And the Activity [16]?
A: Its Activity is 81%.

Q: And the Activity (Homo sapiens [17])?
A: The Activity was 96.5%.

Q: And the Activity [18]?
A: The Activity was 96.5%.

Q: And the Activity (SW-620)?
A: The Activity was “Active”.

Q: What about the Activity [19] of the same molecule?
A: The Activity was 99.5%.

Q: And the Activity (Homo sapiens [20])?
A: The Activity was 103%.

Q: What about the Activity [21] of the same molecule?
A: The Activity was 142%.

Q: What about the Activity [22] of the same molecule?
A: Its Activity is 114%.

Q: And the Activity [23]?
A: The Activity was 88%.

Q: And the Activity [24]?
A: Its Activity is 92%.
